In PMC8113231 (Nature Communications, 2021):
Where a SMILES comes first, the peptide text is derived from it. Bridges are numbered along the chain shown (N, C = ends). [ ]: non-standard residue; d: D form. NMeF = CN[C@@H](Cc1ccccc1)C(=O)O; NMeS = CN[C@@H](CO)C(=O)O; Sar = CNCC(=O)O

Tests used:
[1] = in vitro; conditions: human, serum
[2] = system: HA on H1N1 virions; assay type: binding, influenza A virus
[3] = system: H1N1/Tokyo2619; assay type: cell-based, influenza A virus
[4] = system: H5N1/Vac-3; assay type: cell-based, influenza A virus
[5] = system: HA from A/California/07/2009 (H1N1); assay type: cell-based, influenza A virus
[6] = system: HA on H2N2 virions; assay type: binding, influenza A virus
[7] = system: A/whooper swan/Hokkaido/1/08 (H5N1); parameters: species or system BALB/c mice; conditions: mouse, in vivo, 1.9 mg/kg/day
[8] = system: chicken red blood cells
[9] = system: A/Vietnam/UT3040/2004 (H5N1/Vietnam); parameters: species or system cynomolgus monkeys; conditions: cynomolgus monkey, in vivo
[10] = system: A/duck/Hokkaido/Vac-3/07 (H5N1/Vac-3); assay: microbe, parasite or virus in culture; assay type: cell-based, influenza A virus

With CC(C)[C@@H]1NC(=O)[C@H]([C@@H](C)O)NC(=O)[C@H](Cc2ccc(O)cc2)NC(=O)[C@H](Cc2c[nH]cn2)NC(=O)[C@H](CO)N(C)C(=O)[C@H](CO)NC(=O)[C@H](Cc2ccccc2)N(C)C(=O)[C@H](Cc2ccccc2)N(C)C(=O)[C@H](CC(=O)O)NC(=O)CN(C)C(=O)[C@H]([C@@H](C)O)NC(=O)[C@H](Cc2c[nH]c3ccccc23)NC(=O)CSC[C@@H](C(N)=O)NC(=O)[C@H](CCCNC(=N)N)NC(=O)[C@@H]2CCCN2C1=O [iHA-100] ({CH2CO}-WT[Sar]D[NMeF][NMeF]S[NMeS]HYTVPRC-NH2; thioether N-15) the half-life [1] was ~3.85 h, the “Binding to HA on H1N1 virions (pull-down)” value [2] was “bound to HA” and the “H1N1/Tokyo2619 virus-mediated RBC membrane fusion” value [3] was “inhibited by iHA-100 in a dose-dependent manner”. The “H5N1/Vac-3 virus-mediated RBC membrane fusion” value [4] was “inhibited by iHA-100 in a dose-dependent manner”, the “Polykaryon formation mediated by H1 HA” value [5] was “significantly inhibited” and the “Binding to HA on H2N2 virions (pull-down)” value [6] was “bound to HA”. For the same compound, the “Progression of pneumonia (histopathology)” value [7] was “prevented the progression of pneumonia”, the Survival [7] was 40% and the “Survival rate, administration started 0 days after infection” value [7] was “comparable with the survival rate in the zanamivir-treated group”. The “Viral replication in the lungs” value [7] was “significantly suppressed”, the “Virus-related increase in lung weight” value [7] was “significantly suppressed” and the Inhibition of hemagglutination [8] was “could not”. The “IFN-γ in the lungs” value [9] was “significantly reduced”, the “IL-6 in the lungs” value [9] was “significantly reduced” and the “IL-15 in the lungs” value [9] was “decreased”. The “Virus titers in autopsy lung samples at 7 dpi” value [9] was “low virus titers in the lungs of two monkeys”, the Body temperature ([9]; 3 mg/kg/day) was “returned to a normal range” and the Bodyweight loss ([9]; 3 mg/kg/day) was “relatively attenuated”. The Lung weights ([9]; 3 mg/kg/day) was “relatively lower”, the “Virus in nasal, oral and bronchial swabs” value ([9]; 3 mg/kg/day) was “disappeared at 3–6 dpi” and the “Virus shedding after treatment (3–7 dpi), area under the curve” value ([9]; po) was “significantly lower virus shedding”. For the same compound, the “Plaque formation of H5N1/Vac-3 (screen of 28 candidates)” value [10] was “inhibited plaque formation” and the “Size of viral plaques” value [10] was “reduced the size of viral plaques”.
